Assays:
[1] = system: PPT CGNPs expressing vismodegib-resistant SMO mutants; experiment: PPT CGNP proliferation, methyl-[3H]-thymidine incorporation; assay type: cell-based, mouse; details: for proliferation in the presence of SMO inhibitor: 500 nM of compound, SMO-mutant expressing cells
[2] = system: PPT CGNPs infected with SMO-WT and Cre; experiment: as above; assay type: cell-based, mouse; details: for proliferation in the presence of SMO inhibitor: 500 nM of compound
SMO-N219D = SMO-N219D (Homo sapiens, UniProt Q99835, N219D); experiment: Gli-luciferase based Hh reporter assay; assay type: cell-based; details: 1 μM vismodegib, C3H10T½ cells
Chain of SMO-N219D (Q99835 28-787 N219D): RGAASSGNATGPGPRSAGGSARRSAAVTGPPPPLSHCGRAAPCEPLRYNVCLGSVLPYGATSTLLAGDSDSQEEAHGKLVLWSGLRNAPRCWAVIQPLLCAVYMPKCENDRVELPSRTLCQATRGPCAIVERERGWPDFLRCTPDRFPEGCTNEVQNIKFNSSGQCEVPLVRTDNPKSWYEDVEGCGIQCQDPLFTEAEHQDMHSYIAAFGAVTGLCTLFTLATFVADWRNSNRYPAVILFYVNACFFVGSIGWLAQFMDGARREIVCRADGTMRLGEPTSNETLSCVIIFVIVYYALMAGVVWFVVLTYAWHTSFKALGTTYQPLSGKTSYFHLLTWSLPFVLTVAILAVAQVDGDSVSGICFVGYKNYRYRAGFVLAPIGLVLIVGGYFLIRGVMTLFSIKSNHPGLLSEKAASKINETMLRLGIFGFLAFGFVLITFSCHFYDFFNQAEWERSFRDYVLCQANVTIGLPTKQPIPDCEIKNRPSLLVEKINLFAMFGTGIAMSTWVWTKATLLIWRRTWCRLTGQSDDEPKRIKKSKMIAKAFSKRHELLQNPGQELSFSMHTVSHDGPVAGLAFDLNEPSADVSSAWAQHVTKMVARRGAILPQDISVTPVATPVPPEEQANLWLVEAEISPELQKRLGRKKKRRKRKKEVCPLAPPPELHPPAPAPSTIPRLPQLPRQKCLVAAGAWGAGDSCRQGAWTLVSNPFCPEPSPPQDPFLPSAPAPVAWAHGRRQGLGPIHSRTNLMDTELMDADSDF

SMO-D384N = SMO-D384N (Homo sapiens, UniProt Q99835, D384N); experiment: Gli-luciferase based Hh reporter assay; assay type: cell-based; details: 1 μM vismodegib, C3H10T½ cells
Chain of SMO-D384N (Q99835 28-787 D384N): as the sequence (Q99835 28-787 N219D) above, with D192N, D357N counted along it

SMO-S387N = SMO-S387N (Homo sapiens, UniProt Q99835, S387N); experiment: Gli-luciferase based Hh reporter assay; assay type: cell-based; details: 1 μM vismodegib, C3H10T½ cells
Chain of SMO-S387N (Q99835 28-787 S387N): as the sequence (Q99835 28-787 N219D) above, with D192N, S360N counted along it

SMO-I408V = SMO-I408V (Homo sapiens, UniProt Q99835, I408V); experiment: [3H]-vismodegib binding to transfected HEK-293 cells; details: compared with SMO-WT at similar cell surface levels
Chain of SMO-I408V (Q99835 28-787 I408V): as the sequence (Q99835 28-787 N219D) above, with D192N, I381V counted along it

activating SMO mutants = experiment: as above; details: all activating mutants tested, cell surface expression comparable to SMO-WT
[3] = system: PPT CGNPs infected with SMO DBP mutants; experiment: PPT CGNP proliferation, methyl-[3H]-thymidine incorporation; assay type: cell-based, mouse; details: high levels of vismodegib (>1 μM)
[4] = system: PPT CGNPs infected with SMO-C469Y; experiment: as above; assay type: cell-based, mouse; details: 5 μM vismodegib
[5] = system: SMO-T241M expressing CGNPs; experiment: as above; assay type: cell-based, mouse; details: vismodegib dose response after removal of SHH ligand
[6] = system: SMO-A459V expressing CGNPs; experiment: as above; assay type: cell-based, mouse; details: vismodegib dose response after removal of SHH ligand
[7] = system: SMO-W535L expressing CGNPs; experiment: as above; assay type: cell-based, mouse; details: vismodegib dose response after removal of SHH ligand
SMO-D473H = details: mutation from relapsed metastatic MB; ref Yauch et al., 2009; cited from earlier work
advanced BCC patients = details: ref Chang and Oro, 2012; cited from earlier work

## Cc1sc2c(c1C)C(c1ccc(Cl)cc1)=N[C@@H](CC(=O)OC(C)(C)C)c1nnc(C)n1-2 [JQ1]
[1]; 1 μM JQ1
  proliferation in the presence of bromodomain inhibitor: reduced proliferation

## Cc1c(C(=O)Nc2ccc(N3C[C@@H](C)O[C@@H](C)C3)nc2)cccc1-c1ccc(OC(F)(F)F)cc1 [LDE225, sonidegib]
[2]
  proliferation in the presence of SMO inhibitor: similarly inhibited the proliferation
[1]
  proliferation in the presence of SMO inhibitor: continued to proliferate, albeit to differing extents

## CN(C(=O)c1ccc(F)cc1C(F)(F)F)C1CCN(c2nnc(-c3ccnn3C)c3ccccc23)CC1 [LY2940680]
[2]
  proliferation in the presence of SMO inhibitor: similarly inhibited the proliferation
[1]
  proliferation in the presence of SMO inhibitor: continued to proliferate, albeit to differing extents

## CS(=O)(=O)c1ccc(C(=O)Nc2ccc(Cl)c(-c3ccccn3)c2)c(Cl)c1 [vismodegib]
SMO-N219D
  sensitivity to vismodegib compared to SMO-WT: reduced sensitivity
SMO-D384N
  sensitivity to vismodegib compared to SMO-WT: reduced sensitivity
SMO-S387N
  sensitivity to vismodegib compared to SMO-WT: reduced sensitivity
SMO-I408V
  [3H]-vismodegib binding: impaired vismodegib binding
Activating SMO mutants
  vismodegib binding: impaired vismodegib binding
[2]; Mus musculus, read-out: IC50, proliferation
  IC50: ~22 nM
[2]; after removal of SHH ligand
  concentration at which proliferation was maximally inhibited: 100 nM
[3]
  proliferation in the presence of vismodegib: continuing to proliferate at high levels of vismodegib
[4]
  proliferation in the presence of vismodegib: continued to proliferate at near untreated levels
[5]
  proliferation in the presence of vismodegib: continued to proliferate at high concentrations of vismodegib
[6]
  proliferation in the presence of vismodegib: continued to proliferate at high concentrations of vismodegib
[7]
  proliferation in the presence of vismodegib: continued to proliferate at high concentrations of vismodegib
SMO-D473H
  drug binding in vitro: abrogate drug binding
Advanced BCC patients
  estimated incidence of secondary, or acquired, resistance in BCC: ~ 20 % per year
